{"source": "patent US11370798B2", "about": "(Vertex Pharmaceuticals Incorporated, priority 2012, dated 2022)"}
{"tested_on": "HCT116 colorectal cancer cells", "assay": "Cisplatin sensitization assay (96 h cell viability MTS);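 note: Test-compound concentration that lowers the Cisplatin IC50 by a set fold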", "format": "cell-based", "details": "compound and Cisplatin added simultaneously, Cisplatin sensitization value", "summary_of_the_method": "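Viability read by MTS (1 h at 37° C) after 96 h co-exposure at 37° C, 5% CO2. Test compound and cisplatin were dosed simultaneously in a full concentration matrix, each 2-fold serially diluted from 10 μM final; sensitization values binned in μM.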"}
{"smiles": "Nc1nn2cc(F)cnc2c1C(=O)Nc1cnccc1N1CCC2(CC1)COC2", "note": "[I-N-226, N-(4-(2-oxa-7-azaspiro[3.5]nonan-7-yl)pyridin-3-yl)-2-amino-6-fluoropyrazolo[1,5-a]pyrimidine-3-carboxamide]", "Cisplatin Sensitization Assay": "+++ (Cisplatin sensitization value of <0.02 μM)"}
{"smiles": "CN1CCN2CCN(c3ccncc3NC(=O)c3c(N)nn4cc(Cl)cnc34)CC2C1", "note": "(stereo not drawn) [I-N-61, 2-amino-6-chloro-N-(4-(8-methylhexahydro-1H-pyrazino[1,2-a]pyrazin-2(6H)-yl)pyridin-3-yl)pyrazolo[1,5-a]pyrimidine-3-carboxamide]", "Cisplatin Sensitization Assay": "+++ (Cisplatin sensitization value of <0.02 μM)"}
{"smiles": "COCCOc1ccncc1NC(=O)c1c(N)nn2cc(Cl)cnc12", "note": "[I-O-55, 2-amino-6-chloro-N-(4-(2-methoxyethoxy)pyridin-3-yl)pyrazolo[1,5-a]pyrimidine-3-carboxamide]", "Cisplatin Sensitization Assay": "++ (Cisplatin sensitization value>0.02 μM but <0.2 μM)"}
{"smiles": "Nc1nn2cc(F)cnc2c1C(=O)Nc1cnccc1-c1ccccc1", "note": "[I-C-5, 2-amino-6-fluoro-N-(4-phenylpyridin-3-yl)pyrazolo[1,5-a]pyrimidine-3-carboxamide]", "Cisplatin Sensitization Assay": "+++ (Cisplatin sensitization value of <0.02 μM)"}
{"smiles": "Nc1nn2cc(F)cnc2c1C(=O)Nc1cnccc1-c1cccnc1F", "note": "[I-C-35, 2-amino-6-fluoro-N-(2-fluoro-[3,4′-bipyridin]-3′-yl)pyrazolo[1,5-a]pyrimidine-3-carboxamide]", "Cisplatin Sensitization Assay": "+++ (Cisplatin sensitization value of <0.02 μM)"}
{"smiles": "CC(=O)N1CCN(c2c(F)cncc2NC(=O)c2c(N)nn3cc(F)cnc23)CC1", "note": "[I-N-275, N-(4-(4-acetylpiperazin-1-yl)-5-fluoropyridin-3-yl)-2-amino-6-fluoropyrazolo[1,5-a]pyrimidine-3-carboxamide]", "Cisplatin Sensitization Assay": "+++ (Cisplatin sensitization value of <0.02 μM)"}
{"smiles": "CC(=O)N1CC2(CCN(c3ccncc3NC(=O)c3c(N)nn4cc(F)cnc34)CC2)C1", "note": "[I-N-251, N-(4-(2-acetyl-2,7-diazaspiro[3.5]nonan-7-yl)pyridin-3-yl)-2-amino-6-fluoropyrazolo[1,5-a]pyrimidine-3-carboxamide]", "Cisplatin Sensitization Assay": "+++ (Cisplatin sensitization value of <0.02 μM)"}
{"smiles": "Nc1nn2cc(F)cnc2c1C(=O)Nc1cncc(F)c1N1CCN(S(=O)(=O)C2COC2)CC1", "note": "[I-N-201]", "Cisplatin Sensitization Assay": "+++ (Cisplatin sensitization value of <0.02 μM)"}
{"smiles": "N#CCc1cnc2c(C(=O)Nc3cnccc3OCCN)c(N)nn2c1", "note": "[I-O-83, 2-amino-N-(4-(2-aminoethoxy)pyridin-3-yl)-6-(cyanomethyl)pyrazolo[1,5-a]pyrimidine-3-carboxamide]", "Cisplatin Sensitization Assay": "+++ (Cisplatin sensitization value of <0.02 μM)"}
{"smiles": "CNC(=O)C1CCN(c2c(F)cncc2NC(=O)c2c(N)nn3cc(F)cnc23)CC1", "note": "[I-G-33, 2-amino-6-fluoro-N-(5-fluoro-4-(4-(methylcarbamoyl)piperidin-1-yl)pyridin-3-yl)pyrazolo[1,5-a]pyrimidine-3-carboxamide]", "Cisplatin Sensitization Assay": "+++ (Cisplatin sensitization value of <0.02 μM)"}
{"smiles": "CN(C)CC1CCN(c2ccncc2NC(=O)c2c(N)nn3cc(Cl)cnc23)CC1", "note": "[I-N-45, 2-amino-6-chloro-N-(4-(4-((dimethylamino)methyl)piperidin-1-yl)pyridin-3-yl)pyrazolo[1,5-a]pyrimidine-3-carboxamide]", "Cisplatin Sensitization Assay": "++ (Cisplatin sensitization value>0.02 μM but <0.2 μM)"}
{"smiles": "N#CCc1cnc2c(C(=O)Nc3cnccc3OC3CCCC3)c(N)nn2c1", "note": "[I-O-43, 2-amino-6-(cyanomethyl)-N-(4-(cyclopentyloxy)pyridin-3-yl)pyrazolo[1,5-a]pyrimidine-3-carboxamide]", "Cisplatin Sensitization Assay": "+++ (Cisplatin sensitization value of <0.02 μM)"}
